“Also recorded” adds a separate entry of the source.
Assays:
[1] = test system: serum starved placental explants; assay: Placental explant culture in serum-free medium, 4HNE / LC3B / LAMP2 immunohistochemistry; type: cell-based, human; conditions: 24 hr of treatment; for disturbance in autophagosome size / disturbance in lysosomal location: serum starved placental explants; for production of 4HNE (induced by serum starvation): term placental explants, serum-free medium, 1 nM, p<0.05 (N=6)
From the text: For in vitro experiments, human term placentas (38-39 weeks of gestation) were obtained from women with normal singleton pregnancies without any symptoms of labour after an elective (a scheduled repeat) caesarean section. Placentas were collected immediately after delivery and prepared for explant culture. Villous tissues of placentas were randomly sampled from different regions of placenta and 4-5 mm beneath the chorionic plate. Tissues were washed several times with Dulbecco's phosphate-buffered saline (DPBS) under sterile condition to remove excess blood.
Villous explants of ˜2 mm^3 were dissected and placed into 100×20 mm culture dishes (30 pieces/dish) containing 25 ml of Dulbecco's modified Eagle's medium (DMEM) supplemented with 2 mM L-glutamine, 1% Na-pyruvate, 1% penicillin/streptomycin (100×) solution with the addition of 10% (v/v) fetal bovine serum (FBS) and were cultured in a cell culture chamber at 37° C. temperature and maintaining 95% air (20% oxygen) and 5% CO2 for 24 hours. At day 2, villous explants were transferred to fresh 30 ml growth medium and incubated in a cell culture chamber for 90 minutes. After this the tissues were washed in DMEM without FBS (refer to as ‘serum-free medium’ or ‘growth factor deficient medium’). Next 6-7 pieces of villous tissue weighing approximately 400 mg were transferred to a culture dish (60×15 mm) containing 6 ml serum-free medium with or without the addition of pharmacological agents, for example, raloxifene (1 nM) and GPER1 agonist G1 (1 nM), for subsequent incubation up to 24 h. At the end of 24 h some tissues were fixed in 2% formaldehyde, subjected to routine histological processing and embedded in paraffin wax, and some tissues were immediately frozen in liquid nitrogen and stored at −80° C. until subsequent experiments. For each placental explant culture, samples were also collected at time ‘0 (zero)’ h i.e., before incubation in serum free medium, and were formalin fixed and stored frozen at −80° C. until further experiments.
6 μm paraffin placental sections were deparaffinised and hydrated, then heated with tris-EDTA buffer (pH 9) in a microwave oven for antigen retrieval. The sections were blocked with 1% BSA in TBST for an hour at room temperature. The sections were incubated with primary antibodies overnight and washed three times with TBST, before incubation with Alexa-conjugated secondary antibodies for 90 mins. The sections were mounted with antifade solution with DAPI. The fluorescent photographs for FIGS. 3 to 7, 9 and 11 were taken on a Nikon eclipse 90i confocal microscope. The fluorescent photographs for FIG. 10 were taken on Nikon eclipse Ti fluorescence microscope.
The present data provide clear evidence for increased lipid oxidation, disordered lysosome-autophagosome interactions and increased AOX1 expression in the post-dated and stillbirth placental syncytiotrophoblast. To determine if these events were causally linked the inventors developed a placental explant culture system using term placental tissue cultured in serum-free (growth factor deficient) medium.
The inventors sought to determine cause and effect relationships between the development of lipid oxidation observed when placental explants were cultured in the absence of serum and AOX1. The GPER agonist G-1 was used to inhibit aldehyde oxidase. The potent AOX1 inhibitor, raloxifene, was also used.

[2] = test system: kidney; conditions: Lindsey et al., 2011, Hypertension, 58: 665-671; cited from earlier work

| Compound | disturbance in autophagosome size [1] | disturbance in lysosomal location [1] | production of 4HNE (induced by serum starvation) [1] | production of 4HNE in the kidney [2] |
| --- | --- | --- | --- | --- |
| O=C(c1ccc(OCCN2CCCCC2)cc1)c1c(-c2ccc(O)cc2)sc2cc(O)ccc12 [raloxifene] | able to block | able to block | inhibited the production of 4HNE; also recorded: significantly reduced | – |
| CC(=O)c1ccc2c(c1)C1C=CCC1C(c1cc3c(cc1Br)OCO3)N2 (stereo not shown) [G1, 1-[4-(6-bromobenzo[1,3]dioxol-5yl)-3a,4,5,9b-tetrahydro-3H-cyclopenta[c]quinolin-8-yl]-ethanone] | able to block | able to block | inhibited the production of 4HNE; also recorded: significantly reduced | inhibit production of 4HNE in the kidney |
